In series [1] the test system is factor VII (F7). The note with it: mouse liver; cited from earlier work.
Series [2] can be described thus: Evaluation of lipid polymorphism by 31P NMR spectroscopy. The format is physicochemical. The note with it: DOPC/lipid=50/50 (mol %), hydrated with PBS(−), 25° C. As for the experimental part: The spectrum of a lipid membrane by ^31P NMR spectroscopy differs depending on the phase. Therefore, analysis of a lipid membrane composed of DOPC and a lipid under evaluation was performed by ^31P NMR spectroscopy, the polymorphism of the phase state of the lipid membrane was evaluated from the obtained spectrum, and the ability of the lipid under evaluation to destroy the DOPC membrane was evaluated.
Specifically, DOPC and a lipid under evaluation (DOPE or TOT-10) were mixed at a molar ratio of 1:1 (16 μmol of total lipid) and were dissolved in 300 μL of chloroform, and then the solvent was removed by a distillation apparatus (rotovap) to form a lipid membrane. The resulting lipid membrane was hydrated with 500 μL of PBS(−) at 60° C. to obtain a sample for measurement.
Next, the sample was transferred to an NMR tube, and a proton-decoupled ^31P NMR spectrum was obtained using an ECA500 apparatus manufactured by JEOL Ltd. Acquisition parameters included a […], a spectral width of 280 kHz (for ECX 400P) with 32,768 data points, and an interpulse delay time of 1 second. The temperature was controlled at 25° C. Prior to Fourier transform, exponential multiplication corresponding to a line broadening of 50 Hz was applied to the free induction decay. Chemical shifts were referenced to 85% phosphoric acid (H3PO4) as an external standard. […]

Regarding `CCCCC/C=C\C/C=C\CCCCCCCCC(CCCCCCCC/C=C\C/C=C\CCCCC)OC(=O)CCCN(C)C` [DLin-MC3-DMA], the “ED50 in factor VII (F7) knockdown” value in series [1] was 0.005 mg siRNA/kg.

Turning to `CCCCCCCC/C=C\CCCCCCCC(=O)OC[C@H](COP(=O)(O)OCCN)OC(=O)CCCCCCC/C=C\CCCCCCCC` [DOPE, 1,2-dioleoyl-sn-glycero-3-phosphoethanolamine], in series [2], the “phase of lipid membrane seen in 31P NMR spectrum” value is listed as “a peak derived from the lamellar phase was observed”.

`CCCCCCCC/C=C\CCCCCCCC(=O)OCC(COC(=O)CCCCCCC/C=C\CCCCCCCC)(COC(=O)CCCCCCC/C=C\CCCCCCCC)NC(=O)CCC[N+](C)(C)CC(=O)[O-]` [TOT-10, 2-((4-((1,3-bis(oleoyloxy)-2-((oleoyloxy)methyl)propan-2-yl)amino)-4-oxobutyl)dimethylammonio)acetate]: in series [2], the “phase of lipid membrane seen in 31P NMR spectrum” value is reported as “a peak derived from the hexagonal phase or isotropic phase was observed instead of a peak derived from the lamellar phase”.

Turning to `CCCCC/C=C\C/C=C\CCCCCCCCOC1(OCCCCCCCC/C=C\C/C=C\CCCCC)CCN(C)CC1` [YSK05], the “ED50 in factor VII (F7) knockdown” value in series [1] is 0.06 mg siRNA/kg.

Source of the values: US20260048021A1, “NEUTRAL LIPID AND LIPID NANOPARTICLE” (National University Corporation Hokkaido University, priority 2022, published 2026).
